# Experimental data as given in paper PMC6222847, “Application of HPCCC Combined with Polymeric Resins and HPLC for the Separation of Cyclic Lipopeptides Muscotoxins A–C and Their Antimicrobial Activity” (Molecules : A Journal of Synthetic Chemistry and Natural …, 2018).
# *1 amine or outer side, *2 acyl side, *3 side chain or, on linkers, in order; H or OH if unused. Where a SMILES comes first, the peptide text is derived from it. [ ]: non-standard residue; d: D form. X1 = CCCCCC(O)CC(N[*:1])C(O)C(=O)[*:2]; X2 = CC1C[C@@H](C(=O)[*:2])N([*:1])C1; d(aIle) = CC[C@H](C)[C@@H](N)C(=O)O; Dhb = C/C=C(\N)C(=O)O
# How the values were obtained:
# [1] = Partition coefficient (K) in two-phase HPCCC solvent systems; type: physicochemical; settings: 2 mg extract in 2 mL (1 mL per phase), HPLC-ESI-HRMS
# Excerpt: When working with HPCCC, the search for a proper two-phase solvent system has been informed to represent the major part of the work involved in the HPCCC separation. An appropriate two-phase solvent system for HPCCC has to provide a good partition coefficient (0.5 ≤ K ≤ 2.5) for the target compound. […] Additionally, for achieving a good resolution between two closely eluting peaks, the separation factor (α) between the two compounds (α = K2/K1, K2 > K1) should be greater than 1.5 [14, 26]. It is well described that compounds with smaller K values show a poor resolution because they elute closer to the solvent front. On the contrary, those compounds with larger K value are better separated but elute as wider peaks and at later elution times. In the present study, the capacity of different two-phase solvent systems (Table 1) to provide suitable K values of the compounds 1–3 was investigated. The K value is frequently estimated by using HPLC with UV detection, which is calculated by dividing the peak area of the target compound in the upper phase by that of the peak area of the same target compound in the lower phase. However, given that UV chromatogram provided insufficient peak areas for minor muscotoxins, the MS detector was thus used to estimate the K values. By using this approach, the peak area of the molecular ions corresponding to the target compounds were selectively monitored from the base peak chromatogram. As presented in the Table 1, the solvent system 10 (n-hexane, ethyl acetate, ethanol, and water in a ratio of 1:5:1:5) gave suitable K values and a proper separation factor (α) for compounds 2 and 3, as well as a short settling time. […] The improvement of the K value of compound 1 could be achieved by finding out a new solvent system or by modifying the composition of the already selected solvent system. In the present study, the system 10 was acidified by adding acetic acid leading to the system 11 (n-hexane, ethyl acetate, ethanol, water, and acetic acid, 1:5:1:5:1). […] Although the partition coefficients of the target compounds in systems 10 and 11 are strongly correlated, the system 10 ensured a sufficient selectivity (α = 1.5) between the compounds 2 and 3. […] In HPCCC, it is very well established that when the retention of stationary phase is increased, a good chromatographic resolution is achieved. A reduced flow rate of the mobile phase and a high rotational speed of the column favor the retention of the stationary phase inside the HPCCC column. In this study, the flow rate of the mobile phase in the first step and second step of the HPCCC operations was 1 mL/min and the rotational speed was set at 1200 rpm. Moreover, it was observed that a good resolution between the compounds 2 and 3 was achieved when injecting 100 mg of enriched extract.
# Different two-phase solvent systems were prepared using n-hexane, ethyl acetate, ethanol, water, and acetic acid in different proportions (Table 1). The prepared solvent systems were investigated for their capacity to provide suitable partition coefficients (K) of the target compounds. In addition, given that the settling time as well as the density difference between the upper and lower phases of each two-phase solvent system are parameters associated with the retention of stationary phase in the column, they were thus estimated and used as selection criteria. For estimating the partition coefficient (Table 1) of the target compound, 2 mg of extract containing the target compounds was dissolved in 2 mL of a given two-phase solvent system (1 mL per each phase). The test tube containing the sample solution was shaken vigorously, and then left, to equilibrate the two phases, for 20 min. Equal volumes of each phase were then analyzed by HPLC-ESI-HRMS to obtain the partition coefficients (K), which were calculated by dividing the peak area of the target compound in the upper phase by the peak area of compound in the lower phase.
# [2] = system: Sclerotinia sclerotiorum; assay: Disc diffusion antifungal assay; type: cell-based; settings: S. sclerotiorum, 250–1.5625 µg/disk, Czapek-Dox medium, mycelium growth after 4 days by image analysis, triplicate
# Description: Due to the unavailability of enough amounts of isolated compounds, the antifungal activity for all the isolated compounds (1–3) was initially tested only against plant pathogenic fungi Sclerotinia sclerotiorum by determining the minimum inhibitory concentration (MIC) using disc diffusion assay. Compounds (1–3) were dissolved in MeOH at different concentrations and further transferred (20 µL) on layer filter paper targets (size 5 mm) to get desired concentrations of 250–1.5625 µg/disk. Discs were placed at the border of Petri dish (average 35 mm) containing Czapek-Dox medium. The mycelial target of the plant pathogenic fungus S. sclerotiorum (0.5 cm in diameter) was inoculated on the opposite sites of dish. […] The growth of fungal mycelium after 4 days in the presence of the studied compounds was evaluated using digital image analysis. […] The images (TIFF format) were converted by thresholds, and the area of binary objects corresponding to size of grown mycelium was measured and evaluated by software NIS-ELEMENTS AR ver. […] The inhibition of the mycelium growth (inhibition zone in percentages) was calculated as the difference between the measurements (in px) of the total area of fungal mycelium (negative controls) and of the area that is covered with mycelium (treated dishes).
# [3] = system: Alternaria alternata; assay: microbe, parasite or virus in culture; type: cell-based; settings: Alternaria alternata; A. alternata BCC020_0609; Muller Hinton broth with 2% glucose, 300–0.0732 µg/mL (control 32–0.0625), 30 °C 48 h, triplicate; least concentration showing any inhibition; read-out: MIC
# Description: (§1) Furthermore, compound 1 was evaluated for its antimicrobial activity against five bacterial isolates; S. aureus (CCM3824), B. subtilis (CCM1999), S. sanguinis (CCM4047), P. aeruginosa (CCM1959), E. coli (CCM2024), and eight fungal isolates; C. friedrichii (BCC020_2879), A. fumigatus (BCC020_2845), F. oxysporum (BCC020_2866), T. harzianum (BCC020_0606), B. sorokiniana (BCC020_1571), M. cucumerina (BCC020_2872), C. globosum (BCC020_2527), and A. alternata (BCC020_0609) using broth two-fold microdilution method following the standard protocol. Briefly, for broth microdilution method, the compounds were serially diluted at varying concentrations between 300 and 0.0732 µg/mL in Mueller Hinton broth (for bacteria) and Muller Hinton broth with 2% glucose (for fungi) in 96-well plates. Culture broth (0.1 mL) was added to each well containing the compound. Plates were incubated aerobically at 37 °C for 16 h (bacteria) and 30 °C for 48 h (for fungi). Negative controls were prepared separately with respective organisms in the same culture media with methanol (the dissolving solvent). Positive controls were also prepared separately with respective organisms. Erythromycin (32–0.0625 µg/mL) was used as positive control for S. aureus and S. sanguinis, gentamycin (32–0.0625 µg/mL) was used as positive control for Bacillus subtilis, E. coli, and P. aeruginosa, whereas fluconazole (32–0.0625 µg/mL) was used as positive control for all the fungal isolates. After incubation, the well with the least concentration of the compound showing any inhibition in the growth was taken as the MIC value for the respective organisms. MIC95 was determined as the concentration required to inhibit or kill 95% of bacterial isolates spectroscopically at 600 nm. Minimum fungicidal concentration (MFCs) were determined after 48 h incubation by removing 10 µL of the contents from wells showing no visible growth and spreading them on to Sabouraud dextrose agar plates. The plates were then incubated for 72 h and MFCs were determined as the concentrations which killed 95–100% of the inoculum. All the experiments were done in triplicate.
# [4] = system: Aspergillus fumigatus; assay: microbe, parasite or virus in culture; type: cell-based; settings: Aspergillus fumigatus; A. fumigatus BCC020_2845; Muller Hinton broth with 2% glucose, 300–0.0732 µg/mL (control 32–0.0625), 30 °C 48 h, triplicate; least concentration showing any inhibition; read-out: MIC
# Description: as §1
# [5] = system: Candida friedrichii; assay: microbe, parasite or virus in culture; type: cell-based; settings: Yamadazyma friedrichii; C. friedrichii BCC020_2879; Muller Hinton broth with 2% glucose, 300–0.0732 µg/mL (control 32–0.0625), 30 °C 48 h, triplicate; least concentration showing any inhibition; read-out: MIC
# Description: as §1
# [6] = system: Chaetomium globosum; assay: microbe, parasite or virus in culture; type: cell-based; settings: Chaetomium globosum; C. globosum BCC020_2527; Muller Hinton broth with 2% glucose, 300–0.0732 µg/mL (control 32–0.0625), 30 °C 48 h, triplicate; least concentration showing any inhibition; read-out: MIC
# Description: as §1
# [7] = system: Fusarium oxysporum; assay: microbe, parasite or virus in culture; type: cell-based; settings: Fusarium oxysporum; F. oxysporum BCC020_2866; Muller Hinton broth with 2% glucose, 300–0.0732 µg/mL (control 32–0.0625), 30 °C 48 h, triplicate; least concentration showing any inhibition; read-out: MIC
# Description: as §1
# [8] = system: Monographella cucumerina; assay: microbe, parasite or virus in culture; type: cell-based; settings: Plectosphaerella cucumerina; M. cucumerina BCC020_2872; Muller Hinton broth with 2% glucose, 300–0.0732 µg/mL (control 32–0.0625), 30 °C 48 h, triplicate; least concentration showing any inhibition; read-out: MIC
# Description: as §1
# [9] = system: Trichoderma harzianum; assay: microbe, parasite or virus in culture; type: cell-based; settings: Trichoderma harzianum; T. harzianum BCC020_0606; Muller Hinton broth with 2% glucose, 300–0.0732 µg/mL (control 32–0.0625), 30 °C 48 h, triplicate; least concentration showing any inhibition; read-out: MIC
# Description: as §1
# [10] = system: Bacillus subtilis; assay: Broth two-fold microdilution; type: cell-based; settings: B. subtilis CCM1999; Mueller Hinton broth, 300–0.0732 µg/mL (control 32–0.0625), 37 °C 16 h, triplicate; MIC = least concentration showing any inhibition in the growth
# Description: Furthermore, compound 1 was evaluated for its antimicrobial activity against five bacterial isolates; S. aureus (CCM3824), B. subtilis (CCM1999), S. sanguinis (CCM4047), P. aeruginosa (CCM1959), E. coli (CCM2024), and eight fungal isolates; C. friedrichii (BCC020_2879), A. fumigatus (BCC020_2845), F. oxysporum (BCC020_2866), T. harzianum (BCC020_0606), B. sorokiniana (BCC020_1571), M. cucumerina (BCC020_2872), C. globosum (BCC020_2527), and A. alternata (BCC020_0609) using broth two-fold microdilution method following the standard protocol. Briefly, for broth microdilution method, the compounds were serially diluted at varying concentrations between 300 and 0.0732 µg/mL in Mueller Hinton broth (for bacteria) and Muller Hinton broth with 2% glucose (for fungi) in 96-well plates. Culture broth (0.1 mL) was added to each well containing the compound. […] MIC95 was determined as the concentration required to inhibit or kill 95% of bacterial isolates spectroscopically at 600 nm. Minimum fungicidal concentration (MFCs) were determined after 48 h incubation by removing 10 µL of the contents from wells showing no visible growth and spreading them on to Sabouraud dextrose agar plates. The plates were then incubated for 72 h and MFCs were determined as the concentrations which killed 95–100% of the inoculum. […]
# [11] = solvent system 4, n-Hex–EtOAc–EtOH–H2O 7:3:5:5, shaken, 20 min, K = peak area UP/LP
# [12] = solvent system 5, n-Hex–EtOAc–EtOH–H2O 6:4:5:5, shaken, 20 min, K = peak area UP/LP
# [13] = solvent system 7, n-Hex–EtOAc–EtOH–H2O 4:5:4:5, shaken, 20 min, K = peak area UP/LP
# [14] = solvent system 8, n-Hex–EtOAc–EtOH–H2O 3:5:3:5, shaken, 20 min, K = peak area UP/LP
# [15] = solvent system 9, n-Hex–EtOAc–EtOH–H2O 2:5:2:5, shaken, 20 min, K = peak area UP/LP
# [16] = solvent system 11, n-Hex–EtOAc–EtOH–H2O–AcOH 1:5:1:5:1, shaken, 20 min, K = peak area UP/LP
molecule,measurement,setting,value
muscotoxin C [compound 1],Partition Coefficient (K) of Muscotoxins,[1]; [11],0.01
same,Partition Coefficient (K) of Muscotoxins,[1]; [12],0.01
same,Partition Coefficient (K) of Muscotoxins,[1]; [13],0.02
same,Partition Coefficient (K) of Muscotoxins,[1]; [14],0.08
same,Partition Coefficient (K) of Muscotoxins,[1]; [15],0.40
same,Partition Coefficient (K) of Muscotoxins,[1]; [16],1.09
same,lowest dose to manifest its activity,[2],> 250 µg
"C/C=C1\NC(=O)[C@H](CO)NC(=O)[C@@H]([C@@H](C)CC)NC(=O)[C@H](Cc2ccccc2)NC(=O)[C@@H]2CC(C)CN2C(=O)CNC(=O)[C@@H](CCC(N)=O)NC(=O)C(O)C(CC(O)CCCCC)NC(=O)[C@@H]2CCCN2C(=O)[C@@H]([C@@H](C)CC)NC(=O)[C@H](CO)NC1=O (stereo partly shown) [compound 3, muscotoxin B] (cyclo([Dhb]S[d(aIle)]P[X1][dQ]G[X2]F[d(aIle)]S))",Partition Coefficient (K) of Muscotoxins,"[1]; solvent system 1, n-Hex–EtOH–H2O 10:5:5, shake test tube, equilibrated 20 min, K = peak area upper phase/lower phase",0.01
same,Partition Coefficient (K) of Muscotoxins,"[1]; solvent system 2, n-Hex–EtOAc–EtOH–H2O 9:1:5:5, shaken, 20 min, K = peak area UP/LP",0.01
same,Partition Coefficient (K) of Muscotoxins,[1]; [11],0.02
same,Partition Coefficient (K) of Muscotoxins,[1]; [12],0.04
same,Partition Coefficient (K) of Muscotoxins,"[1]; solvent system 6, n-Hex–EtOAc–EtOH–H2O 5:5:5:5, shaken, 20 min, K = peak area UP/LP",0.01
same,Partition Coefficient (K) of Muscotoxins,[1]; [13],0.05
same,Partition Coefficient (K) of Muscotoxins,[1]; [14],0.27
same,Partition Coefficient (K) of Muscotoxins,[1]; [15],1.22
same,Partition Coefficient (K) of Muscotoxins,"[1]; solvent system 10, n-Hex–EtOAc–EtOH–H2O 1:5:1:5, shaken, 20 min, K = peak area UP/LP",1.41
same,Partition Coefficient (K) of Muscotoxins,[1]; [16],2.45
"OC(Cn1cncn1)(Cn1cncn1)c1ccc(F)cc1F [fluconazole, reference compound]",MIC,[3],2 µg/mL
same,MIC,[4],32 µg/mL
same,MIC,[5],8 µg/mL
same,MIC,[6],2 µg/mL
same,MIC,[7],8 µg/mL
same,MIC,[8],2 µg/mL
same,MIC,[9],4 µg/mL
gentamycin [reference compound],MIC,[10],4 µg/mL
